From US10039753B2, “Imidazo[4,5-c]quinoline and imidazo[4,5-c][1,5]naphthyridine derivatives as LRRK2 inhibitors” (Pfizer Inc., priority 2015, dated 2018)
pIC50: −log10 of the molar value. Where a name gives a salt, the structure may show the parent alone.

How the values were obtained:
[1] = target: T1, GST-tagged truncated LRRK2 (Homo sapiens, UniProt Q5S007); test: LRRK2 Assay, Format 2 (Lantha Screen), WT; type: biochemical; details: geometric mean of 2-4 determinations unless otherwise indicated (a: >=5; b: single determination)
T1 construct: GST-tagged truncated LRRK2 from Invitrogen (Cat # PV4874); GST; purchased Invitrogen PV4874

mutant G2019S LRRK2 = mutant G2019S LRRK2 (Homo sapiens, UniProt Q5S007, G2019S); test: LRRK2 Assay, Format 2 (Lantha Screen), G2019S mutant; type: biochemical; parameters: purchased Invitrogen PV4881; details: geometric mean of 2-4 determinations unless otherwise indicated (a: >=5; b: single determination); read-out: LRRK2, Format 2 G2019S IC50
Chain of mutant G2019S LRRK2 (Q5S007 970-2527 G2019S limits assumed): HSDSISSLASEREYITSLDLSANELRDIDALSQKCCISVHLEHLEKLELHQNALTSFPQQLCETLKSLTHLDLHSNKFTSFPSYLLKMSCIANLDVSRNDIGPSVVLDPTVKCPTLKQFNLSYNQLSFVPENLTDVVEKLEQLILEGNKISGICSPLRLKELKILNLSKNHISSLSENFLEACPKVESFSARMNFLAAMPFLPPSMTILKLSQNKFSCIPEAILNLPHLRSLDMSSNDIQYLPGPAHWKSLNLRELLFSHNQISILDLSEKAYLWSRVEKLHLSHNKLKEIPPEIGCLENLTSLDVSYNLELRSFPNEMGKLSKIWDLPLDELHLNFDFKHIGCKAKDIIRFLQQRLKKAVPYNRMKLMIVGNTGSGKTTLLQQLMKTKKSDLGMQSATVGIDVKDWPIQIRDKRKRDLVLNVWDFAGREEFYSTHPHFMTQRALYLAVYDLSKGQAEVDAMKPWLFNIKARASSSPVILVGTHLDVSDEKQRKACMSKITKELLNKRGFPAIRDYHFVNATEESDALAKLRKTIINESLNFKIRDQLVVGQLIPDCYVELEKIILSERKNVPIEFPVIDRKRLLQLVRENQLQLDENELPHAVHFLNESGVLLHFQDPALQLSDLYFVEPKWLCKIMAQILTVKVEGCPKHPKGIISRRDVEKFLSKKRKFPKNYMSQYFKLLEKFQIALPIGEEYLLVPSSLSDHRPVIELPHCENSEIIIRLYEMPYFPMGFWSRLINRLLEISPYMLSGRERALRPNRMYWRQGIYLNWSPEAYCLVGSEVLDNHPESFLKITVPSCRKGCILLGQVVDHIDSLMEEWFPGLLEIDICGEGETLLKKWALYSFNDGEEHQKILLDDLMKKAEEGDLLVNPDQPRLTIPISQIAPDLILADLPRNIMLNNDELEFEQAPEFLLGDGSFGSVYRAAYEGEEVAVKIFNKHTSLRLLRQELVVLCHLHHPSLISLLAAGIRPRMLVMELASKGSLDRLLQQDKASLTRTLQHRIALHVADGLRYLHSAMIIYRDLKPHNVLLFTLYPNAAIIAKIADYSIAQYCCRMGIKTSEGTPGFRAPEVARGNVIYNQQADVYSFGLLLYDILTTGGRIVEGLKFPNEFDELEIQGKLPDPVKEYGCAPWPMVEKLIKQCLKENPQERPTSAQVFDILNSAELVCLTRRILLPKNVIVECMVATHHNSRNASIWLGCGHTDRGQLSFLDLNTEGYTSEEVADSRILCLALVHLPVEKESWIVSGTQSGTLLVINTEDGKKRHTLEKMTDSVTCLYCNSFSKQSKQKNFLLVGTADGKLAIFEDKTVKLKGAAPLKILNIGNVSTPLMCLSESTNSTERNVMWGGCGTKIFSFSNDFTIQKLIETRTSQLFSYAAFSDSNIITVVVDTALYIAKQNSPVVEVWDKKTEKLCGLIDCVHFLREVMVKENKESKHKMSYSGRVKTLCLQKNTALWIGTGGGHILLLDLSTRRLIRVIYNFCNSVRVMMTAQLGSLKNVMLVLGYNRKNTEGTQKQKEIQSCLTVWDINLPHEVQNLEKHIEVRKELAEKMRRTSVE

T1 sequence (Q5S007 970-2527 limits assumed): as the sequence (Q5S007 970-2527 G2019S limits assumed) above, with S1050G counted along it

| pIC50 [1] | pIC50 (mutant G2019S LRRK2) | Compound |
| --- | --- | --- |
| 8.12 | 8.21 | C[C@@H]1C[C@H](n2c(Cc3cnccn3)nc3cnc4ccc(C#N)cc4c32)CCO1 [Example 98, 1-[(2R,4R)-2-Methyltetrahydro-2H-pyran-4-yl]-2-(pyrazin-2-ylmethyl)-1H-imidazo[4,5-c]quinoline-8-carbonitrile, formate salt] |
| 7.64 | 7.45 | N#CCc1nc2cnc3ccc(Cl)cc3c2n1[C@@H]1CC[C@H](F)C1 (single isomer, unassigned; ent-1) [Example 204, {8-chloro-1-(cis-3-fluorocyclopentyl)-1H-imidazo[4,5-c]quinolin-2-yl}acetonitrile, ENT-1] |
| 7.07 | 7.23 | Cc1cc(Cc2nc3cnc4ccc(C#N)cc4c3n2[C@H]2CC[C@](C)(O)CC2)no1 [Example 247, 1-(trans-4-hydroxy-4-methylcyclohexyl)-2-[(5-methyl-1,2-oxazol-3-yl)methyl]-1H-imidazo[4,5-c]quinoline-8-carbonitrile, formate salt] |
| 8.14 | 8.10 | C[C@@H]1C[C@H](n2c(Cc3cn(C)cn3)nc3cnc4ccc(Cl)cc4c32)CCO1 [Example 131, 8-chloro-2-[(1-methyl-1H-imidazol-4-yl)methyl]-1-[(2R,4R)-2-methyltetrahydro-2H-pyran-4-yl]-1H-imidazo[4,5-c]quinoline] |
| 8.19 | 8.22 | Cc1cnc(Cc2nc3cnc4ccc(C#N)cc4c3n2[C@@H]2CCO[C@H](C)C2)s1 [Example 205, 1-[(2R,4R)-2-methyltetrahydro-2H-pyran-4-yl]-2-[(5-methyl-1,3-thiazol-2-yl)methyl]-1H-imidazo[4,5-c]quinoline-8-carbonitrile] |
| 8.21 | 8.27 | C[C@@H]1C[C@H](n2c(Cn3cnnn3)nc3cnc4ccc(C#N)cc4c32)CCO1 [Example 124, 1-[(2R,4R)-2-methyltetrahydro-2H-pyran-4-yl]-2-(1H-tetrazol-1-ylmethyl)-1H-imidazo[4,5-c]quinoline-8-carbonitrile, formate salt] |
| 7.82 | 7.84 | C[C@@H]1C[C@H](n2c(Cc3ccc(C(F)(F)F)cn3)nc3cnc4ccc(C#N)cc4c32)CCO1 [Example 208, 1-[(2R,4R)-2-methyltetrahydro-2H-pyran-4-yl]-2-{[5-(trifluoromethyl)pyridin-2-yl]methyl}-1H-imidazo[4,5-c]quinoline-8-carbonitrile] |
| 7.73 | 7.80 | Cc1cn(Cc2nc3cnc4ccc(C#N)cc4c3n2C2CCCC2(F)F)nn1 (single isomer, unassigned; ent-1) [Example 196, 1-(2,2-difluorocyclopentyl)-2-[(4-methyl-1H-1,2,3-triazol-1-yl)methyl]-1H-imidazo[4,5-c]quinoline-8-carbonitrile, ENT-1] |
| 7.52 | 7.52 | CO[C@H]1C[C@@H](n2c(Cn3cc(C)cn3)nc3cnc4ccc(Cl)cc4c32)C1 [Example 180, 8-chloro-1-[(1s,3s)-3-methoxycyclobutyl]-2-[(4-methyl-1H-pyrazol-1-yl)methyl]-1H-imidazo[4,5-c]quinoline] |
| 7.55 | 7.48 | Cc1cn(Cc2nc3cnc4ccc(Cl)cc4c3n2C2CCC2(F)F)nn1 (centres unmarked) [Example 187, 8-chloro-1-(2,2-difluorocyclobutyl)-2-[(4-methyl-1H-1,2,3-triazol-1-yl)methyl]-1H-imidazo[4,5-c]quinoline] |
| 8.04 | 7.95 | CC(F)(F)Cn1c(Cc2cscn2)nc2cnc3ccc(C#N)cc3c21 [Example 224, 1-(2,2-difluoropropyl)-2-(1,3-thiazol-4-ylmethyl)-1H-imidazo[4,5-c]quinoline-8-carbonitrile] |
| 8.13 | 7.94 | Cc1nn2cc(Cc3nc4cnc5ccc(C#N)cc5c4n3[C@@H]3CC[C@H](F)C3)nc2s1 (single isomer, unassigned; ent-1) [Example 168, 1-(cis-3-fluorocyclopentyl)-2-[(2-methylimidazo[2,1-b][1,3,4]thiadiazol-6-yl)methyl]-1H-imidazo[4,5-c]quinoline-8-carbonitrile, ENT-1] |

Continued, molecule first:

| Compound | pIC50 [1] | pIC50 (mutant G2019S LRRK2) |
| --- | --- | --- |
| C[C@@H]1C[C@H](n2c(CC#N)nc3cnc4ccc(C#N)cc4c32)CCO1 [Example 117, 2-(cyanomethyl)-1-[(2R,4R)-2-methyltetrahydro-2H-pyran-4-yl]-1H-imidazo[4,5-c]quinoline-8-carbonitrile] | 7.77 | 7.71 |
| C[C@@H]1C[C@H](n2c(Cn3cc(C4CC4)nn3)nc3cnc4ccc(C#N)cc4c32)CCO1 [Example 125, 2-[(4-cyclopropyl-1H-1,2,3-triazol-1-yl)methyl]-1-[(2R,4R)-2-methyltetrahydro-2H-pyran-4-yl]-1H-imidazo[4,5-c]quinoline-8-carbonitrile, formate salt] | 8.15 | 8.21 |
| CC1(C)CC(n2c(Cc3cc(C(F)(F)F)on3)nc3cnc4ccc(C#N)cc4c32)CCO1 (single isomer, unassigned; ent-1) [Example 176, 1-(2,2-dimethyltetrahydro-2H-pyran-4-yl)-2-{[5-(trifluoromethyl)-1,2-oxazol-3-yl]methyl}-1H-imidazo[4,5-c]quinoline-8-carbonitrile, ENT-1] | 7.89 | 7.90 |
| Cc1cnc(Cc2nc3cnc4ccc(C#N)cc4c3n2C2CCOC(C)(C)C2)cn1 (single isomer, unassigned; ent-1) [Example 215, 1-(2,2-dimethyltetrahydro-2H-pyran-4-yl)-2-[(5-methylpyrazin-2-yl)methyl]-1H-imidazo[4,5-c]quinoline-8-carbonitrile, ENT-1] | 7.87 | 7.86 |
| Cc1cc(Cc2nc3cnc4ccc(C#N)cc4c3n2[C@@H]2CC[C@H](F)C2)on1 (single isomer, unassigned; ent-1) [Example 118, 1-(cis-3-fluorocyclopentyl)-2-[(3-methyl-1,2-oxazol-5-yl)methyl]-1H-imidazo[4,5-c]quinoline-8-carbonitrile, ENT-1] | 8.38 | 8.21 |
| C[C@@H]1C[C@H](n2c(Cc3cn4ncsc4n3)nc3cnc4ccc(C#N)cc4c32)CCO1 [Example 149, 2-(imidazo[2,1-b][1,3,4]thiadiazol-6-ylmethyl)-1-[(2R,4R)-2-methyltetrahydro-2H-pyran-4-yl]-1H-imidazo[4,5-c]quinoline-8-carbonitrile] | 8.69 | 8.67 |
| Cc1ccn2cc(Cc3nc4cnc5ccc(Cl)cc5c4n3[C@@H]3CCO[C@H](C)C3)nc2n1 [Example 159, 8-chloro-2-[(7-methylimidazo[1,2-a]pyrimidin-2-yl)methyl]-1-[(2R,4R)-2-methyltetrahydro-2H-pyran-4-yl]-1H-imidazo[4,5-c]quinoline] | 8.22 | 8.21 |
| C[C@@H]1C[C@H](n2c(Cn3cc(C(F)(F)F)nn3)nc3cnc4ccc(Cl)cc4c32)CCO1 [Example 99, 8-Chloro-1-[(2R,4R)-2-methyltetrahydro-2H-pyran-4-yl]-2-{[4-(trifluoromethyl)-1H-1,2,3-triazol-1-yl]methyl}-1H-imidazo[4,5-c]quinoline, formate salt] | 8.23 | 8.27 |
| Cc1nn2cc(Cc3nc4cnc5ccc(Cl)cc5c4n3[C@@H]3CCO[C@H](C)C3)nc2s1 [Example 162, 8-chloro-2-[(2-methylimidazo[2,1-b][1,3,4]thiadiazol-6-yl)methyl]-1-[(2R,4R)-2-methyltetrahydro-2H-pyran-4-yl]-1H-imidazo[4,5-c]quinoline, formate salt] | 8.41 | 8.42 |
| Cc1cnn(Cc2nc3cnc4ccc(C#N)cc4c3n2[C@H]2CCN(C)C2)c1 [Example 190, 2-[(4-methyl-1H-pyrazol-1-yl)methyl]-1-[(3S)-1-methylpyrrolidin-3-yl]-1H-imidazo[4,5-c]quinoline-8-carbonitrile] | 7.58 | 7.58 |
| C[C@@H]1C[C@H](n2c(C(=O)c3ccon3)nc3cnc4ccc(Cl)cc4c32)CCO1 [Example 174, {8-chloro-1-[(2R,4R)-2-methyltetrahydro-2H-pyran-4-yl]-1H-imidazo[4,5-c]quinolin-2-yl}(1,2-oxazol-3-yl)methanone] | 7.77 | 7.71 |
| Cc1nn2cc(Cc3nc4cnc5ccc(C#N)cc5c4n3[C@@H]3CC[C@H](F)C3)nc2s1 (single isomer, unassigned; ent-2) [Example 169, 1-(cis-3-fluorocyclopentyl)-2-[(2-methylimidazo[2,1-b][1,3,4]thiadiazol-6-yl)methyl]-1H-imidazo[4,5-c]quinoline-8-carbonitrile, ENT-2] | 8.44 | 8.26 |
| Cc1cn(Cc2nc3cnc4ccc(C#N)cc4c3n2C2CCCC2(F)F)nn1 (single isomer, unassigned; ent-2) [Example 197, 1-(2,2-difluorocyclopentyl)-2-[(4-methyl-1H-1,2,3-triazol-1-yl)methyl]-1H-imidazo[4,5-c]quinoline-8-carbonitrile, ENT-2] | 7.90 | 7.73 |
| C[C@@H]1C[C@H](n2c(Cn3cc(C(F)(F)F)nn3)nc3cnc4ccc(C#N)cc4c32)CCO1 [Example 175, 1-[(2R,4R)-2-methyltetrahydro-2H-pyran-4-yl]-2-{[4-(trifluoromethyl)-1H-1,2,3-triazol-1-yl]methyl}-1H-imidazo[4,5-c]quinoline-8-carbonitrile] | 7.87 | 7.91 |
| C[C@@H]1C[C@H](n2c(C(F)(F)c3ccccn3)nc3cnc4ccc(Cl)cc4c32)CCO1 [Example 214, 8-chloro-2-[difluoro(pyridin-2-yl)methyl]-1-[(2R,4R)-2-methyltetrahydro-2H-pyran-4-yl]-1H-imidazo[4,5-c]quinoline, formate salt] | 8.12 | 8.01 |
| Cc1cc(Cc2nc3cnc4ccc(C#N)cc4c3n2C2CCC2)no1 [Example 216, 1-cyclobutyl-2-[(5-methyl-1,2-oxazol-3-yl)methyl]-1H-imidazo[4,5-c]quinoline-8-carbonitrile, formate salt] | 7.58 | 7.41 |
